In ChEMBL document CHEMBL4004848, “Dregamine and tabernaemontanine derivatives as ABCB1 modulators on resistant cancer cells” (Eur J Med Chem, 2017):

Experiments:
[1] = target: T1, ATP-dependent translocase ABCB1 (Homo sapiens, UniProt P08183); experiment: Inhibition of human ABCB1 expressed in mouse L5178Y cells assessed as increase in rhodamine-123 accumulation by measuring forward scatter count of cells at 2 uM pretreated for 10 mins followed by rhodamine-123 addition after 20 mins by flow cytometry (reference value: 2206); type: cell-based
T1 sequence (P08183 whole entry): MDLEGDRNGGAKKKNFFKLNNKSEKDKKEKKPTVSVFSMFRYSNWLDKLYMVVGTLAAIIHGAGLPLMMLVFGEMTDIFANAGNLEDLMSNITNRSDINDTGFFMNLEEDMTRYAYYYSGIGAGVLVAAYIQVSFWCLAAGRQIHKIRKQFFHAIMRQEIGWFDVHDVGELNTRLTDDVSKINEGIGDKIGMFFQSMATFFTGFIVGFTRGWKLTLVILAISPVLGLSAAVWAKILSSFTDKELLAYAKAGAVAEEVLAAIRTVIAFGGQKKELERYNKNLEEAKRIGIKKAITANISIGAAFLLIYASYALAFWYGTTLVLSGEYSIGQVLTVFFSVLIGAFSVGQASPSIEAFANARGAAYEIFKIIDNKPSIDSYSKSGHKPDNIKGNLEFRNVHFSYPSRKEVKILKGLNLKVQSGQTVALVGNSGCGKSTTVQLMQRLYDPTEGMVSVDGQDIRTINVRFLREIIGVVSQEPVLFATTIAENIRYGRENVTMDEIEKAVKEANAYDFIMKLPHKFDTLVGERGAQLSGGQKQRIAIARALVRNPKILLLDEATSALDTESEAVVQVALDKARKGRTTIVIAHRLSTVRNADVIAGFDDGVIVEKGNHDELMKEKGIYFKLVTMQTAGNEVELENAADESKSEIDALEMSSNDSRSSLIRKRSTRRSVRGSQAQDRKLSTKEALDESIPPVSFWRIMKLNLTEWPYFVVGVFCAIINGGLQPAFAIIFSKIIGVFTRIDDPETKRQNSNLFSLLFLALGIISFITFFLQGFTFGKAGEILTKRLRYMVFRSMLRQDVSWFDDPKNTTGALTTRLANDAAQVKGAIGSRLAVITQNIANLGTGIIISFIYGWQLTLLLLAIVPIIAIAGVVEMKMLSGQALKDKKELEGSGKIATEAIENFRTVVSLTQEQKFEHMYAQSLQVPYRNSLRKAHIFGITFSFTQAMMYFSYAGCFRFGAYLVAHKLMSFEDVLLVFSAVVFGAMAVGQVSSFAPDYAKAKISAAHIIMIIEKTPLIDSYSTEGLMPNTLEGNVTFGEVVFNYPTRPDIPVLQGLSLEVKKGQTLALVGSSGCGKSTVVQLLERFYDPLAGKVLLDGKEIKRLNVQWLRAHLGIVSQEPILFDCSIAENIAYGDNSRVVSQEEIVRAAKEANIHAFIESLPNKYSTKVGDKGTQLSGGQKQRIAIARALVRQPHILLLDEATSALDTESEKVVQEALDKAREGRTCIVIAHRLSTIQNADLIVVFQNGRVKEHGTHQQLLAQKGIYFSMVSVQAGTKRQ

[2] = target: T1, ATP-dependent translocase ABCB1; experiment: Inhibition of human ABCB1 expressed in mouse L5178Y cells assessed as increase in rhodamine-123 accumulation by measuring side scatter count of cells at 20 uM pretreated for 10 mins followed by rhodamine-123 addition after 20 mins by flow cytometry (reference value: 903); type: cell-based
[3] = Selectivity index, ratio of IC50 for mouse L5178Y cells to IC50 for human ABCB1 expressed in L5178Y cells
[4] = tested on: L5178Y; experiment: Cytotoxicity against mouse L5178Y cells after 24 hrs by MTT assay; type: functional, cell-based
[5] = target: T1, ATP-dependent translocase ABCB1; experiment: Inhibition of human ABCB1 expressed in mouse L5178Y cells assessed as potentiation of doxorubicin-induced cytotoxicity by measuring combination index at 1:5 doxorubicin to compound ratio after 48 hrs by MTT assay; type: cell-based
[6] = target: T1, ATP-dependent translocase ABCB1; experiment: Inhibition of human ABCB1 expressed in mouse L5178Y cells assessed as fluorescence activity ratio at 2 uM pretreated for 10 mins followed by rhodamine-123 addition after 20 mins by flow cytometry; type: cell-based
[7] = target: T1, ATP-dependent translocase ABCB1; experiment: Inhibition of human ABCB1 expressed in mouse L5178Y cells assessed as increase in rhodamine-123 accumulation by measuring side scatter count of cells at 2 uM pretreated for 10 mins followed by rhodamine-123 addition after 20 mins by flow cytometry (reference value: 903); type: cell-based
[8] = tested on: NIH3T3; experiment: Cytotoxicity against mouse NIH/3T3 cells after 24 hrs by MTT assay; type: cell-based; settings: NIH3T3, 24 h
[9] = target: T1, ATP-dependent translocase ABCB1; experiment: Inhibition of human ABCB1 expressed in mouse L5178Y cells pretreated for 10 mins followed by rhodamine-123 addition after 20 mins by flow cytometry; type: cell-based
[10] = target: T1, ATP-dependent translocase ABCB1; experiment: Inhibition of human ABCB1 expressed in mouse L5178Y cells assessed as increase in rhodamine-123 accumulation by measuring forward scatter count of cells at 20 uM pretreated for 10 mins followed by rhodamine-123 addition after 20 mins by flow cytometry (reference value: 2206); type: cell-based
[11] = target: T1, ATP-dependent translocase ABCB1; experiment: Inhibition of human ABCB1 expressed in mouse L5178Y cells assessed as fluorescence activity ratio at 20 uM pretreated for 10 mins followed by rhodamine-123 addition after 20 mins by flow cytometry; type: cell-based
[12] = Selectivity index, ratio of IC50 for mouse NIH/3T3 cells to IC50 for mouse L5178Y cells; type: functional
[13] = target: T1, ATP-dependent translocase ABCB1; experiment: Inhibition of human ABCB1 expressed in mouse L5178Y cells assessed as potentiation of doxorubicin-induced cytotoxicity by measuring combination index at 1:25 doxorubicin to compound ratio after 48 hrs by MTT assay; type: cell-based
[14] = target: T1, ATP-dependent translocase ABCB1; experiment: Inhibition of human ABCB1 expressed in mouse L5178Y cells assessed as potentiation of doxorubicin-induced cytotoxicity by measuring combination index at 4:25 doxorubicin to compound ratio after 48 hrs by MTT assay; type: cell-based

## CC[C@H]1CN(C)[C@H]2Cc3c([nH]c4ccccc34)C(=S)C[C@H]1[C@@H]2C(=O)OC
[1]
  Activity: 2242
[2]
  Activity: 1226
[3]
  Ratio IC50: 0.7
[4]
  IC50: 54.5 µM
[5]
  CI: 0.22
[6]
  Ratio: 2.99
[7]
  Activity: 1120
[8]
  IC50: > 100 µM
[9]
  inhibition (INH): Dose-dependent effect
[10]
  Activity: 2242
[11]
  Ratio: 51.15

## CC[C@H]1CN(C)[C@H]2Cc3c(n(Cc4ccccc4)c4ccccc34)C(=O)C[C@H]1[C@@H]2C(=O)OC
[1]
  Activity: 2417
[12]
  Ratio IC50: 1.68
[2]
  Activity: 1193
[3]
  Ratio IC50: 0.87
[4]
  IC50: 33.3 µM
[13]
  CI: 0.23
[6]
  Ratio: 4.82
[7]
  Activity: 1217
[8]
  IC50: 56.1 µM
[9]
  inhibition (INH): Dose-dependent effect
[10]
  Activity: 2449
[11]
  Ratio: 55.74

## CC[C@H]1CN(C)[C@H]2Cc3c([nH]c4ccccc34)/C(=N/NC(=S)NCc3cccnc3)C[C@H]1[C@@H]2C(=O)OC
[1]
  Activity: 2244
[12]
  Ratio IC50: 2.45
[2]
  Activity: 805
[3]
  Ratio IC50: 0.46
[4]
  IC50: 20.8 µM
[6]
  Ratio: 1.27
[14]
  CI: 0.6
[7]
  Activity: 808
[8]
  IC50: 50.9 µM
[9]
  inhibition (INH): Dose-dependent effect
[10]
  Activity: 2301
[11]
  Ratio: 30.98

## CC[C@H]1CN(C)[C@H]2Cc3c([nH]c4ccccc34)/C(=N/Nc3ccccc3)C[C@H]1[C@@H]2C(=O)OC
[1]
  Activity: 2183
[2]
  Activity: 1071
[3]
  Ratio IC50: 0.84
[4]
  IC50: 44.2 µM
[6]
  Ratio: 8.84
[14]
  CI: 0.34
[7]
  Activity: 1046
[8]
  IC50: > 100 µM
[9]
  inhibition (INH): Dose-dependent effect
[10]
  Activity: 2158
[11]
  Ratio: 60.89

## CC[C@H]1CN(C)[C@H]2Cc3c([nH]c4ccccc34)/C(=N/NC(=O)OCc3ccc(OC)cc3)C[C@H]1[C@@H]2C(=O)OC
[1]
  Activity: 2262
[2]
  Activity: 746
[3]
  Ratio IC50: 0.65
[4]
  IC50: 34.3 µM
[13]
  CI: 0.16
[6]
  Ratio: 31.88
[7]
  Activity: 784
[8]
  IC50: > 100 µM
[9]
  inhibition (INH): Dose-dependent effect
[10]
  Activity: 2278
[11]
  Ratio: 72.88
